Results: publication PMC12169847, “Targeted protein degradation by KLHDC2 ligands identified by high-throughput screening” (eLife, 2025)
Several values for one entry are separate records, joined by “and”; a condition that tells them apart may be missing. Equal values may be shown once.

Columns and labels:
KEAP1 Kelch domain = molecular target: T1, KEAP1 Kelch domain (Homo sapiens, UniProt Q14145); assay: Fluorescence polarization counter-screen, KEAP1 with TAMRA-NRF2 peptide; type: binding; conditions: for Fluorescence polarization signal: KEAP1, replicate wells; for inhibitory effect in the KEAP1 counter-screening assay: concentrations less than 20 µM; for EC50: in figure
T1 construct: HIS6 (N); made in house; host or cells: Escherichia coli BL21(DE3)

KLHDC2 [1] = molecular target: T2, KLHDC2 (Homo sapiens, UniProt Q9Y2U9); assay: Surface plasmon resonance direct binding to immobilized KLHDC2; conditions: read-out: KLHDC2 Kd (SPR)
T2 sequence (Q9Y2U9 1-362): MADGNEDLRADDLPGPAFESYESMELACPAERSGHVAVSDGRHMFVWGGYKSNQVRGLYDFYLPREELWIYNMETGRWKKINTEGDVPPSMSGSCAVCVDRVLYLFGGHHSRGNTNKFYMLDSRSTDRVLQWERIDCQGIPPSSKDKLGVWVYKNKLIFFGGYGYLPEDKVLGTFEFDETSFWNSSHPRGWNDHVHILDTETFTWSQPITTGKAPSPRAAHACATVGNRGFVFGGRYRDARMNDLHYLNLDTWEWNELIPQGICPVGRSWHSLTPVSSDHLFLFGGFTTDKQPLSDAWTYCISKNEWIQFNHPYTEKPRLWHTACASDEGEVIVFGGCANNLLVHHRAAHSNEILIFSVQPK

GST-tagged KLHDC2 = molecular target: T3, GST-tagged KLHDC2 (Homo sapiens, UniProt Q9Y2U9); assay: Fluorescence polarization competition assay, KLHDC2 with TAMRA-SelK peptide (384-well); conditions: for Fluorescence polarization signal: KLHDC2, replicate wells
T3 sequence (Q9Y2U9 1-362): T2 sequence (Q9Y2U9 1-362)

SelK (Homo sapiens) = SelK (Homo sapiens) (UniProt Q9Y6D0); conditions: cited from earlier work
KLHDC2 [2] = molecular target: KLHDC2; set-up: method as in Rusnac et al., 2018; conditions: ref Rusnac et al., 2018; read-out: dissociation constant, reported literature value; cited from earlier work

T1 sequence (Q14145 321-609 limits assumed): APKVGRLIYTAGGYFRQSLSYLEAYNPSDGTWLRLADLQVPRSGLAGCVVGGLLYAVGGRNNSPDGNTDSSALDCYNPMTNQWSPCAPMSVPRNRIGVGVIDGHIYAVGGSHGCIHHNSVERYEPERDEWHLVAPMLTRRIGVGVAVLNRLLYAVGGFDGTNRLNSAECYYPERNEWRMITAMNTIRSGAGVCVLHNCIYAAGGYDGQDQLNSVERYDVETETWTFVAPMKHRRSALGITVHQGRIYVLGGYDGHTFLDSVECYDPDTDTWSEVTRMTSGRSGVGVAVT
Sequence of KLHDC2 (from UniProt Q9Y2U9) (Q9Y2U9 whole entry): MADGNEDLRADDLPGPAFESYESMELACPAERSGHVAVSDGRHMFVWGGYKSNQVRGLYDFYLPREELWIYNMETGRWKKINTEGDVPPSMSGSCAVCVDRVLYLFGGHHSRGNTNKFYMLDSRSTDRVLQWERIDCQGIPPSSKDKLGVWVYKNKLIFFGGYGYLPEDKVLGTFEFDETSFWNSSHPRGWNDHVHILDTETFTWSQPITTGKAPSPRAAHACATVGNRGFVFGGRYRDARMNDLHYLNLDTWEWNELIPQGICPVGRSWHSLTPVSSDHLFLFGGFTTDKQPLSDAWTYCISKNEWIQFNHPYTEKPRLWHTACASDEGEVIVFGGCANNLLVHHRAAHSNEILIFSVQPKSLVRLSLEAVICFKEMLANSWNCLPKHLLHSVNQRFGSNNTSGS
Sequence of SelK (Homo sapiens) (Q9Y6D0 2-94): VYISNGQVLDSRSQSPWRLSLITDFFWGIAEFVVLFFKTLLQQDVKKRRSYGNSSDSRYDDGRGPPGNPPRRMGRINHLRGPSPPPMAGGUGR

Compound	Fluorescence polarization signal (KEAP1 Kelch domain; 0.169351 nM)	Fluorescence polarization signal (KEAP1 Kelch domain; 0.508053 nM)	Fluorescence polarization signal (KEAP1 Kelch domain; 1.52416 nM)	Fluorescence polarization signal (KEAP1 Kelch domain; 4.57247 nM)	Fluorescence polarization signal (KEAP1 Kelch domain; 13.7174 nM)	Fluorescence polarization signal (KEAP1 Kelch domain; 41.1523 nM)	Fluorescence polarization signal (KEAP1 Kelch domain; 123.457 nM)	Fluorescence polarization signal (KEAP1 Kelch domain; 370.37 nM)	Fluorescence polarization signal (KEAP1 Kelch domain; 1111.11 nM)	Fluorescence polarization signal (KEAP1 Kelch domain; 3333.33 nM)	Fluorescence polarization signal (KEAP1 Kelch domain; 10000 nM)	inhibitory effect in the KEAP1 counter-screening assay (KEAP1 Kelch domain)	EC50 (KEAP1 Kelch domain) [nM]	Kd (KLHDC2 [1])	EC50 (GST-tagged KLHDC2) [nM]	IC50 (GST-tagged KLHDC2) [nM]	Fluorescence polarization signal (GST-tagged KLHDC2; 0.169351 nM)	Fluorescence polarization signal (GST-tagged KLHDC2; 0.508053 nM)	Fluorescence polarization signal (GST-tagged KLHDC2; 1.52416 nM)	Fluorescence polarization signal (GST-tagged KLHDC2; 4.57247 nM)	also measured
Cc1ccc(C)c(C2Nc3c(C(=O)O)cc(Cl)cc3C3C4CCC(C4)C23)c1 (centres unmarked) [compound 2]	14.7 and 20.2 and 14.4	10.4 and 15.1 and 11.1	17 and 19.8 and 20.3	20.3 and 18.2 and 19.6	18.8 and 19.1 and 18	21.6 and 19.5 and 32	24.5 and 18.9 and 12.1	22.6 and 16.2 and 24.9	20.2 and 15.6 and 21	14.8 and 21.8 and 27	17.3 and 22.1 and 15.2	did not have an inhibitory effect	> 20000	440 nM and 443 nM	1270	1300	-6.704 and 3.427 and -1.254	-10.2042 and 5.927 and -5.854	-0.3042 and -6.173 and -5.554	3.896 and 7.124 and -7.354	Fluorescence polarization signal (GST-tagged KLHDC2; 13.7174 nM): 2.496 and 7.927 and -2.554; Fluorescence polarization signal (GST-tagged KLHDC2; 41.1523 nM): 1.996 and 10.1266 and 8.192; Fluorescence polarization signal (GST-tagged KLHDC2; 123.457 nM): -3.304 and -7.673 and -6.554; Fluorescence polarization signal (GST-tagged KLHDC2; 370.37 nM): -2.804 and -8.673 and -1.254; Fluorescence polarization signal (GST-tagged KLHDC2; 1111.11 nM): -10.1042 and -12.1734 and -2.854; Fluorescence polarization signal (GST-tagged KLHDC2; 3333.33 nM): -28.2042 and -24.2734 and -28.2543; Fluorescence polarization signal (GST-tagged KLHDC2; 10000 nM): -26.0042 and -23.7734 and -24.4543
KLHDC2 (from UniProt Q9Y2U9)																					Kd (SelK (Homo sapiens)): 3.4 nM
SelK: client protein of KLHDC2 with C-terminal diglycine degron																					Kd (KLHDC2 [2]): < 10 nM

Second part, led by results:

Fluorescence polarization signal (KEAP1 Kelch domain; 0.169351 nM)	Fluorescence polarization signal (KEAP1 Kelch domain; 0.508053 nM)	Fluorescence polarization signal (KEAP1 Kelch domain; 1.52416 nM)	Fluorescence polarization signal (KEAP1 Kelch domain; 4.57247 nM)	Fluorescence polarization signal (KEAP1 Kelch domain; 13.7174 nM)	Fluorescence polarization signal (KEAP1 Kelch domain; 41.1523 nM)	Fluorescence polarization signal (KEAP1 Kelch domain; 123.457 nM)	Fluorescence polarization signal (KEAP1 Kelch domain; 370.37 nM)	Fluorescence polarization signal (KEAP1 Kelch domain; 1111.11 nM)	Fluorescence polarization signal (KEAP1 Kelch domain; 3333.33 nM)	Fluorescence polarization signal (KEAP1 Kelch domain; 10000 nM)	inhibitory effect in the KEAP1 counter-screening assay (KEAP1 Kelch domain)	EC50 (KEAP1 Kelch domain) [nM]	Kd (KLHDC2 [1])	EC50 (GST-tagged KLHDC2) [nM]	IC50 (GST-tagged KLHDC2) [nM]	Fluorescence polarization signal (GST-tagged KLHDC2; 0.169351 nM)	Fluorescence polarization signal (GST-tagged KLHDC2; 0.508053 nM)	Fluorescence polarization signal (GST-tagged KLHDC2; 1.52416 nM)	Fluorescence polarization signal (GST-tagged KLHDC2; 4.57247 nM)	Compound	also measured
15.2 and 20.2 and 9.533	11.1 and 15.1 and 18.7	20.7 and 19.8 (2×)	27.1 and 18.2 and 28.2	24.4 and 19.1 and 17	12.2 and 19.5 and 19.8	21.2 and 18.9 and 16.3	24.1 and 16.2 and 17.6	21.2 and 15.6 and 17.3	8.697 and 21.8 and 19.7	14.9 and 22.1 and 19.3	did not have an inhibitory effect	> 20000	810 nM and 809 nM	2500	2500	0.6958 and 5.527 and -6.154	0.1958 and 5.927 and -4.854	-13.1042 and -0.4734 and -3.754	1.996 and -1.273 and -4.954	COc1ccc(C2CC(c3cccc(F)c3)Nc3c(C(=O)O)cc(Br)cc32)cc1OC (centres unmarked) [compound 1]	Fluorescence polarization signal (GST-tagged KLHDC2; 13.7174 nM): 2.396 and 3.527 and -0.6542; Fluorescence polarization signal (GST-tagged KLHDC2; 41.1523 nM): 2.696 and 0.3828 and -2.854; Fluorescence polarization signal (GST-tagged KLHDC2; 123.457 nM): -3.504 and -5.782 and -9.454; Fluorescence polarization signal (GST-tagged KLHDC2; 370.37 nM): -4.604 and 3.827 and -2.854; Fluorescence polarization signal (GST-tagged KLHDC2; 1111.11 nM): -13.7042 and -3.373 and -3.854; Fluorescence polarization signal (GST-tagged KLHDC2; 3333.33 nM): -18.1042 and -20.4734 and -17.5543; Fluorescence polarization signal (GST-tagged KLHDC2; 10000 nM): -16.9042 and -31.6734 and -31.9543
20 and 24 and 25	22 and 20 and 32	29 and 21 and 41	16 and 24 and 43	24 (2×) and 27	20 and 18 and 26	20 and 35 and 31	31 and 22 and 25	25 and 23 and 18	15 and 26 and 34	31 and 14 and 27	no inhibitory effect	> 20000	380 nM and 379 nM	760	760	-4 and 1 and 6	-11.1 and -2.3 and 1	-1.4 and 2 and 0	1 (2×) and -8.1	O=C(O)c1cc(Cl)cc2c1NC(c1cccc(C(F)(F)F)c1)C1C3CCC(C3)C21 (centres unmarked) [compound 5]	Fluorescence polarization signal (GST-tagged KLHDC2; 13.7174 nM): 1 and -4 and 0; Fluorescence polarization signal (GST-tagged KLHDC2; 41.1523 nM): 1 and -1.4 and -5.1; Fluorescence polarization signal (GST-tagged KLHDC2; 123.457 nM): 0 and -2.6 and -8.8; Fluorescence polarization signal (GST-tagged KLHDC2; 370.37 nM): -30.6 and -31 and -24.7; Fluorescence polarization signal (GST-tagged KLHDC2; 1111.11 nM): -67.8 and -66.2 and -52.8; Fluorescence polarization signal (GST-tagged KLHDC2; 3333.33 nM): -93.4 and -88.4 and -82.2; Fluorescence polarization signal (GST-tagged KLHDC2; 10000 nM): -84.4 and -101.233 and -107.845
